Data as given in ChEMBL document CHEMBL2412968, “Tetrazole-based deoxyamodiaquines: synthesis, ADME/PK profiling and pharmacological evaluation as potential antimalarial agents” (Bioorg Med Chem, 2013).
Converted amounts (≈) assume the structure as drawn.

Columns and labels:
Plasmodium falciparum [1] = experiment: Antiplasmodial activity chloroquine-resistant Plasmodium falciparum K1 infected in human A+ erythrocytes assessed as reduction of [3H]hypoxanthine incorporation after 24 hrs by scintillation counting; assay type: functional, organism-based
Plasmodium falciparum [2] = experiment: Antiplasmodial activity chloroquine-resistant Plasmodium falciparum W2 using YOYO-1 staining after 48 hrs by FACS analysis; assay type: functional, organism-based; conditions: W2, 48 h
Plasmodium falciparum [3] = experiment: Antiplasmodial activity chloroquine-sensitive Plasmodium falciparum 3D7 infected in human A+ erythrocytes assessed as reduction of [3H]hypoxanthine incorporation after 24 hrs by scintillation counting; assay type: functional, organism-based
physchem [4] = conditions: phosphate buffered saline, pH 7.4
physchem [5] = conditions: 0.01 M HCl, pH 2
CHO = experiment: Cytotoxicity against CHO cells by MTT assay; assay type: cell-based; conditions: Cricetulus griseus

Compound | IC50 (Plasmodium falciparum [1]) | IC50 (Plasmodium falciparum [2]) | IC50 (Plasmodium falciparum [3]) | solubility kinetic at 2 h (physchem [4]) | solubility kinetic at 2 h (physchem [5]) | IC50 (CHO)
CN(C)C(c1ccccc1Nc1ccnc2cc(Cl)ccc12)c1nnnn1C(C)(C)C (centres undefined) | 3500 nM | 3380 nM | 3500 nM |  |  | 
CCN(CC)C(c1cccc(Nc2ccnc3cc(Cl)ccc23)c1)c1nnnn1CCN1CCOCC1 (centres undefined) | 245 nM | 194 nM | 30 nM |  |  | 
CN(C)C(c1ccc(Nc2ccnc3cc(Cl)ccc23)cc1)c1nnnn1C(C)(C)C (centres undefined) | 12 nM | 40 nM | 12 nM |  |  | 
Clc1ccc2c(Nc3cccc(C(c4nnnn4CCN4CCOCC4)N4CCCC4)c3)ccnc2c1 (centres undefined) | 310 nM | 3390 nM | 220 nM |  |  | 
CC(C)(C)n1nnnc1C(c1cccc(Nc2ccnc3cc(Cl)ccc23)c1)N1CCOCC1 (centres undefined) | 1290 nM | 195 nM | 99 nM |  |  | 
CN(C)C(c1cccc(Nc2ccnc3cc(Cl)ccc23)c1)c1nnnn1CCN1CCOCC1 (centres undefined) | 379 nM | 544 nM | 379 nM |  |  | 
CN(C)C(c1cccc(Nc2ccnc3cc(Cl)ccc23)c1)c1nnn[nH]1 (centres undefined) | 2980 nM | 1170 nM | 487 nM | 72.6 µM (≈ 27.6 µg/mL) | > 200 µM | 
CC[C@H]1CN2CCc3cc(OC)c(OC)cc3[C@@H]2C[C@@H]1C[C@H]1NCCc2cc(OC)c(OC)cc21 [EMETINE] |  |  |  |  |  | 129 nM
CN(C)C(c1cccc(Nc2ccnc3cc(Cl)ccc23)c1)c1nnnn1C(C)(C)C (centres undefined) | 150 nM | 227 nM | 52 nM | 7.3 µM (≈ 3.18 µg/mL) | > 200 µM | 
